Test results as given in patent publication US20110136666A1, “CHEMICAL COMPOUNDS” (SYNGENTA CROP PROTECTION, INC., priority 2008, published 2011).

Test system: Ipomea hederaceae (IPOHE)
Test: Post-emergence biological efficacy, glasshouse pot test
Format: in vivo
Details: Ipomoea hederacea, 312 h, 1000 g/ha, after 13 days, 100=total damage, 0=no damage, read-out: Percentage damage caused to weed species IPONE
Outline: (§1)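 Species sown in soil and grown 8 days in glasshouse (24/16 °C day/night, 14 h light, 65% humidity), then sprayed with compound in acetone/water (50:50) with 0.5% Tween 20 at 250 or 1000 g/ha. Damage scored visually after 13 days (0 = none, 100 = total).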

SMILES	pest or weed control at 1000 g/ha
Nc1nc(-c2ccccn2)nc(C(=O)O)c1Cl [Compound 1-149, 4-amino-5-chloro-2-pyridin-2-ylpyrimidine-6-carboxylic acid]	0%
COC(=O)c1nc(-c2cnn(C)c2)nc(N)c1Cl [Compound 2-71, 4-amino-5-chloro-6-methoxycarbonyl-2-(1-methyl-1H-pyrazol-4-yl)-pyrimidine]	30%
COC(=O)c1nc(-c2ccc(C#N)nc2)nc(N)c1Cl [Compound 2-158, 4-amino-5-chloro-2-(2-cyanopyridin-5-yl)-6-methoxycarbonylpyrimidine]	20%

Test system: Amaranthus retroflexus (AMARE)
Test: as above
Format: in vivo
Details: 312 h, 1000 g/ha, after 13 days, 100=total damage, 0=no damage, read-out: Percentage damage caused to weed species AMARE
Outline: as §1

SMILES	pest or weed control at 1000 g/ha
Nc1nc(-c2ccccn2)nc(C(=O)O)c1Cl [Compound 1-149, 4-amino-5-chloro-2-pyridin-2-ylpyrimidine-6-carboxylic acid]	0%
COC(=O)c1nc(-c2cnn(C)c2)nc(N)c1Cl [Compound 2-71, 4-amino-5-chloro-6-methoxycarbonyl-2-(1-methyl-1H-pyrazol-4-yl)-pyrimidine]	0%
COC(=O)c1nc(-c2ccc(C#N)nc2)nc(N)c1Cl [Compound 2-158, 4-amino-5-chloro-2-(2-cyanopyridin-5-yl)-6-methoxycarbonylpyrimidine]	0%

Test system: Alopecurus myosuroides (ALOMY)
Test: as above
Format: in vivo
Details: 312 h, 1000 g/ha, after 13 days, 100=total damage, 0=no damage, read-out: Percentage damage caused to weed species ALOMY
Outline: as §1

SMILES	pest or weed control at 1000 g/ha
Nc1nc(-c2ccccn2)nc(C(=O)O)c1Cl [Compound 1-149, 4-amino-5-chloro-2-pyridin-2-ylpyrimidine-6-carboxylic acid]	0%
COC(=O)c1nc(-c2cnn(C)c2)nc(N)c1Cl [Compound 2-71, 4-amino-5-chloro-6-methoxycarbonyl-2-(1-methyl-1H-pyrazol-4-yl)-pyrimidine]	0%
COC(=O)c1nc(-c2ccc(C#N)nc2)nc(N)c1Cl [Compound 2-158, 4-amino-5-chloro-2-(2-cyanopyridin-5-yl)-6-methoxycarbonylpyrimidine]	0%

Test system: Setaria faberi (SETFA)
Test: as above
Format: in vivo
Details: 312 h, 1000 g/ha, after 13 days, 100=total damage, 0=no damage, read-out: Percentage damage caused to weed species SETFA
Outline: as §1

SMILES	pest or weed control at 1000 g/ha
Nc1nc(-c2ccccn2)nc(C(=O)O)c1Cl [Compound 1-149, 4-amino-5-chloro-2-pyridin-2-ylpyrimidine-6-carboxylic acid]	0%
COC(=O)c1nc(-c2cnn(C)c2)nc(N)c1Cl [Compound 2-71, 4-amino-5-chloro-6-methoxycarbonyl-2-(1-methyl-1H-pyrazol-4-yl)-pyrimidine]	0%
COC(=O)c1nc(-c2ccc(C#N)nc2)nc(N)c1Cl [Compound 2-158, 4-amino-5-chloro-2-(2-cyanopyridin-5-yl)-6-methoxycarbonylpyrimidine]	0%

Test system: Echinochloa crus-galli (ECHCG)
Test: as above
Format: in vivo
Details: 312 h, 1000 g/ha, after 13 days, 100=total damage, 0=no damage, read-out: Percentage damage caused to weed species ECHCG
Outline: as §1

SMILES	pest or weed control at 1000 g/ha
Nc1nc(-c2ccccn2)nc(C(=O)O)c1Cl [Compound 1-149, 4-amino-5-chloro-2-pyridin-2-ylpyrimidine-6-carboxylic acid]	0%
COC(=O)c1nc(-c2cnn(C)c2)nc(N)c1Cl [Compound 2-71, 4-amino-5-chloro-6-methoxycarbonyl-2-(1-methyl-1H-pyrazol-4-yl)-pyrimidine]	0%
COC(=O)c1nc(-c2ccc(C#N)nc2)nc(N)c1Cl [Compound 2-158, 4-amino-5-chloro-2-(2-cyanopyridin-5-yl)-6-methoxycarbonylpyrimidine]	0%

Test system: Solanum nigrum (SOLNI)
Test: as above
Format: in vivo
Details: 312 h, 1000 g/ha, after 13 days, 100=total damage, 0=no damage, read-out: Percentage damage caused to weed species SOLNI
Outline: as §1

SMILES	pest or weed control at 1000 g/ha
Nc1nc(-c2ccccn2)nc(C(=O)O)c1Cl [Compound 1-149, 4-amino-5-chloro-2-pyridin-2-ylpyrimidine-6-carboxylic acid]	0%
COC(=O)c1nc(-c2cnn(C)c2)nc(N)c1Cl [Compound 2-71, 4-amino-5-chloro-6-methoxycarbonyl-2-(1-methyl-1H-pyrazol-4-yl)-pyrimidine]	0%
COC(=O)c1nc(-c2ccc(C#N)nc2)nc(N)c1Cl [Compound 2-158, 4-amino-5-chloro-2-(2-cyanopyridin-5-yl)-6-methoxycarbonylpyrimidine]	20%

Test system: Ipomea hederaceae (IPOHE)
Test: Pre-emergence biological efficacy, glasshouse pot test
Format: in vivo
Details: Ipomoea hederacea, 312 h, 1000 g/ha, after 13 days, 100=total damage, 0=no damage, read-out: Percentage damage caused to weed species IPOHE
Outline: (§2)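 Pots sown with weed seeds, sprayed 1 day after sowing with test compound in acetone/water (50:50) plus 0.5% Tween 20 at 250 or 1000 g/ha. Plants grown in glasshouse at 24/16° C day/night, 14 h light, 65% humidity, watered twice daily. Damage scored visually after 13 days (0 = none, 100 = total).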

SMILES	pest or weed control at 1000 g/ha
Nc1nc(-c2ccccn2)nc(C(=O)O)c1Cl [Compound 1-149, 4-amino-5-chloro-2-pyridin-2-ylpyrimidine-6-carboxylic acid]	0%
COC(=O)c1nc(-c2cnn(C)c2)nc(N)c1Cl [Compound 2-71, 4-amino-5-chloro-6-methoxycarbonyl-2-(1-methyl-1H-pyrazol-4-yl)-pyrimidine]	0%
COC(=O)c1nc(-c2ccc(C#N)nc2)nc(N)c1Cl [Compound 2-158, 4-amino-5-chloro-2-(2-cyanopyridin-5-yl)-6-methoxycarbonylpyrimidine]	0%

Test system: Amaranthus retroflexus (AMARE)
Test: as above
Format: in vivo
Details: 312 h, 1000 g/ha, after 13 days, 100=total damage, 0=no damage, read-out: Percentage damage caused to weed species AMARE
Outline: as §2

SMILES	pest or weed control at 1000 g/ha
Nc1nc(-c2ccccn2)nc(C(=O)O)c1Cl [Compound 1-149, 4-amino-5-chloro-2-pyridin-2-ylpyrimidine-6-carboxylic acid]	0%
COC(=O)c1nc(-c2cnn(C)c2)nc(N)c1Cl [Compound 2-71, 4-amino-5-chloro-6-methoxycarbonyl-2-(1-methyl-1H-pyrazol-4-yl)-pyrimidine]	0%
COC(=O)c1nc(-c2ccc(C#N)nc2)nc(N)c1Cl [Compound 2-158, 4-amino-5-chloro-2-(2-cyanopyridin-5-yl)-6-methoxycarbonylpyrimidine]	0%

Test system: Alopecurus myosuroides (ALOMY)
Test: as above
Format: in vivo
Details: 312 h, 1000 g/ha, after 13 days, 100=total damage, 0=no damage, read-out: Percentage damage caused to weed species ALOMY
Outline: as §2

SMILES	pest or weed control at 1000 g/ha
Nc1nc(-c2ccccn2)nc(C(=O)O)c1Cl [Compound 1-149, 4-amino-5-chloro-2-pyridin-2-ylpyrimidine-6-carboxylic acid]	0%
COC(=O)c1nc(-c2cnn(C)c2)nc(N)c1Cl [Compound 2-71, 4-amino-5-chloro-6-methoxycarbonyl-2-(1-methyl-1H-pyrazol-4-yl)-pyrimidine]	0%
COC(=O)c1nc(-c2ccc(C#N)nc2)nc(N)c1Cl [Compound 2-158, 4-amino-5-chloro-2-(2-cyanopyridin-5-yl)-6-methoxycarbonylpyrimidine]	0%

Test system: Setaria faberi (SETFA)
Test: as above
Format: in vivo
Details: 312 h, 1000 g/ha, after 13 days, 100=total damage, 0=no damage, read-out: Percentage damage caused to weed species SETFA
Outline: as §2

SMILES	pest or weed control at 1000 g/ha
Nc1nc(-c2ccccn2)nc(C(=O)O)c1Cl [Compound 1-149, 4-amino-5-chloro-2-pyridin-2-ylpyrimidine-6-carboxylic acid]	0%
COC(=O)c1nc(-c2cnn(C)c2)nc(N)c1Cl [Compound 2-71, 4-amino-5-chloro-6-methoxycarbonyl-2-(1-methyl-1H-pyrazol-4-yl)-pyrimidine]	0%
COC(=O)c1nc(-c2ccc(C#N)nc2)nc(N)c1Cl [Compound 2-158, 4-amino-5-chloro-2-(2-cyanopyridin-5-yl)-6-methoxycarbonylpyrimidine]	0%

Test system: Echinochloa crus-galli (ECHCG)
Test: as above
Format: in vivo
Details: 312 h, 1000 g/ha, after 13 days, 100=total damage, 0=no damage, read-out: Percentage damage caused to weed species ECHCG
Outline: as §2

SMILES	pest or weed control at 1000 g/ha
Nc1nc(-c2ccccn2)nc(C(=O)O)c1Cl [Compound 1-149, 4-amino-5-chloro-2-pyridin-2-ylpyrimidine-6-carboxylic acid]	0%
COC(=O)c1nc(-c2cnn(C)c2)nc(N)c1Cl [Compound 2-71, 4-amino-5-chloro-6-methoxycarbonyl-2-(1-methyl-1H-pyrazol-4-yl)-pyrimidine]	0%
COC(=O)c1nc(-c2ccc(C#N)nc2)nc(N)c1Cl [Compound 2-158, 4-amino-5-chloro-2-(2-cyanopyridin-5-yl)-6-methoxycarbonylpyrimidine]	0%

Test system: Solanum nigrum (SOLNI)
Test: as above
Format: in vivo
Details: 312 h, 1000 g/ha, after 13 days, 100=total damage, 0=no damage, read-out: Percentage damage caused to weed species SOLNI
Outline: as §2

SMILES	pest or weed control at 1000 g/ha
Nc1nc(-c2ccccn2)nc(C(=O)O)c1Cl [Compound 1-149, 4-amino-5-chloro-2-pyridin-2-ylpyrimidine-6-carboxylic acid]	0%
COC(=O)c1nc(-c2cnn(C)c2)nc(N)c1Cl [Compound 2-71, 4-amino-5-chloro-6-methoxycarbonyl-2-(1-methyl-1H-pyrazol-4-yl)-pyrimidine]	0%
COC(=O)c1nc(-c2ccc(C#N)nc2)nc(N)c1Cl [Compound 2-158, 4-amino-5-chloro-2-(2-cyanopyridin-5-yl)-6-methoxycarbonylpyrimidine]	0%

Test system: not given
Test: not given
Details: not given

SMILES	melting point
Nc1nc(-c2ccccn2)nc(C(=O)O)c1Cl [Compound 1-149, 4-amino-5-chloro-2-pyridin-2-ylpyrimidine-6-carboxylic acid]	183 °C (dec.)
COC(=O)c1nc(-c2cnn(C)c2)nc(N)c1Cl [Compound 2-71, 4-amino-5-chloro-6-methoxycarbonyl-2-(1-methyl-1H-pyrazol-4-yl)-pyrimidine]	185 to 186 °C
COC(=O)c1nc(-c2ccc(C#N)nc2)nc(N)c1Cl [Compound 2-158, 4-amino-5-chloro-2-(2-cyanopyridin-5-yl)-6-methoxycarbonylpyrimidine]	210 to 213 °C
